Measurements from PubChem BioAssay (NCI).
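Protocol summary: plate cells (96-well), add compound at 5 concentrations, incubate 48 h, interpolate endpoints linearly. GI50 = concentration required for 50% inhibition of growth. At the TGI there is no net growth.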

Assays:
Experiment in all cases: NCI-60 cell line screen, 48 h
HOP-92 NSCLC = tested on: HOP-92 NSCLC
SK-OV-3 ovarian = tested on: SK-OV-3 ovarian
OVCAR-5 ovarian = tested on: OVCAR-5 ovarian
SW-620 colon = tested on: SW-620 colon
K-562 leukemia = tested on: K-562 leukemia
SF-268 CNS = tested on: SF-268 CNS
HCC-2998 colon = tested on: HCC-2998 colon
KM12 colon = tested on: KM12 colon
MCF7 breast = tested on: MCF7 breast
SK-MEL-5 melanoma = tested on: SK-MEL-5 melanoma
CAKI-1 renal = tested on: CAKI-1 renal
MOLT-4 leukemia = tested on: MOLT-4 leukemia
COLO 205 colon = tested on: COLO 205 colon
UACC-62 melanoma = tested on: UACC-62 melanoma
HT29 colon = tested on: HT29 colon
HCT-116 colon = tested on: HCT-116 colon
UACC-257 melanoma = tested on: UACC-257 melanoma
HL-60(TB) leukemia = tested on: HL-60(TB) leukemia
MALME-3M melanoma = tested on: MALME-3M melanoma
SNB-19 CNS = tested on: SNB-19 CNS
HCT-15 colon = tested on: HCT-15 colon
SF-295 CNS = tested on: SF-295 CNS
RPMI-8226 leukemia = tested on: RPMI-8226 leukemia
SN12C renal = tested on: SN12C renal
DU-145 prostate = tested on: DU-145 prostate
SK-MEL-28 melanoma = tested on: SK-MEL-28 melanoma
BT-549 breast = tested on: BT-549 breast
M14 melanoma = tested on: M14 melanoma
NCI/ADR-RES ovarian = tested on: NCI/ADR-RES ovarian
SK-MEL-2 melanoma = tested on: SK-MEL-2 melanoma
SNB-75 CNS = tested on: SNB-75 CNS
MDA-MB-435 = tested on: MDA-MB-435
OVCAR-8 ovarian = tested on: OVCAR-8 ovarian
PC-3 prostate = tested on: PC-3 prostate
ACHN renal = tested on: ACHN renal
T-47D breast = tested on: T-47D breast
786-0 renal = tested on: 786-0 renal
A498 renal = tested on: A498 renal
SF-539 CNS = tested on: SF-539 CNS
U251 CNS = tested on: U251 CNS
NCI-H460 lung = tested on: NCI-H460 lung
EKVX NSCLC = tested on: EKVX NSCLC
NCI-H23 lung = tested on: NCI-H23 lung
MDA-MB-231 breast = tested on: MDA-MB-231 breast
IGROV1 ovarian = tested on: IGROV1 ovarian
RXF 393 renal = tested on: RXF 393 renal
OVCAR-4 ovarian = tested on: OVCAR-4 ovarian
CCRF-CEM leukemia = tested on: CCRF-CEM leukemia
HS 578T breast = tested on: HS 578T breast
A549 NSCLC = tested on: A549 NSCLC
SR leukemia = tested on: SR leukemia
HOP-62 NSCLC = tested on: HOP-62 NSCLC
TK-10 renal = tested on: TK-10 renal
UO-31 renal = tested on: UO-31 renal

C#C[C@]1(O)CC[C@H]2[C@@H]3CC=C4c5sc(Nc6cccc(F)c6)nc5CC[C@]4(C)[C@H]3CC[C@@]21C
GI50 (HOP-92 NSCLC): 2190 nM
TGI (HOP-92 NSCLC): 7620 nM
GI50 (SK-OV-3 ovarian): 1860 nM
TGI (SK-OV-3 ovarian): 10100 nM
GI50 (OVCAR-5 ovarian): 1760 nM
TGI (OVCAR-5 ovarian): 4470 nM
GI50 (SW-620 colon): 1720 nM
TGI (SW-620 colon): 4500 nM
GI50 (K-562 leukemia): 677 nM
TGI (K-562 leukemia): 3540 nM
GI50 (SF-268 CNS): 1620 nM
TGI (SF-268 CNS): 7500 nM
GI50 (HCC-2998 colon): 2410 nM
TGI (HCC-2998 colon): 6460 nM
GI50 (KM12 colon): 1890 nM
TGI (KM12 colon): 5690 nM
GI50 (MCF7 breast): 963 nM
TGI (MCF7 breast): 3690 nM
GI50 (SK-MEL-5 melanoma): 1600 nM
TGI (SK-MEL-5 melanoma): 3220 nM
GI50 (CAKI-1 renal): 1030 nM
TGI (CAKI-1 renal): 10800 nM
GI50 (MOLT-4 leukemia): 306 nM
TGI (MOLT-4 leukemia): 947 nM
GI50 (COLO 205 colon): 1830 nM
TGI (COLO 205 colon): 4630 nM
GI50 (UACC-62 melanoma): 1250 nM
TGI (UACC-62 melanoma): 3870 nM
GI50 (HT29 colon): 1520 nM
TGI (HT29 colon): 6060 nM
GI50 (HCT-116 colon): 982 nM
TGI (HCT-116 colon): 2350 nM
GI50 (UACC-257 melanoma): 2310 nM
TGI (UACC-257 melanoma): 17000 nM
GI50 (HL-60(TB) leukemia): 618 nM
TGI (HL-60(TB) leukemia): 2890 nM
GI50 (MALME-3M melanoma): 1490 nM
TGI (MALME-3M melanoma): 4710 nM
GI50 (SNB-19 CNS): 1490 nM
TGI (SNB-19 CNS): 3880 nM
GI50 (HCT-15 colon): 1450 nM
TGI (HCT-15 colon): 4260 nM
GI50 (SF-295 CNS): 208 nM
TGI (SF-295 CNS): 499 nM
GI50 (RPMI-8226 leukemia): 204 nM
TGI (RPMI-8226 leukemia): 615 nM
GI50 (SN12C renal): 3330 nM
TGI (SN12C renal): 13100 nM
GI50 (DU-145 prostate): 1490 nM
TGI (DU-145 prostate): 3970 nM
GI50 (SK-MEL-28 melanoma): 500 nM
TGI (SK-MEL-28 melanoma): 2060 nM
GI50 (BT-549 breast): 456 nM
TGI (BT-549 breast): 3550 nM
GI50 (M14 melanoma): 1310 nM
TGI (M14 melanoma): 5870 nM
GI50 (NCI/ADR-RES ovarian): 2320 nM
TGI (NCI/ADR-RES ovarian): 7610 nM
GI50 (SK-MEL-2 melanoma): 1100 nM
TGI (SK-MEL-2 melanoma): 4450 nM
GI50 (SNB-75 CNS): 310 nM
TGI (SNB-75 CNS): 6080 nM
GI50 (MDA-MB-435): 1650 nM
TGI (MDA-MB-435): 7500 nM
GI50 (OVCAR-8 ovarian): 3040 nM
TGI (OVCAR-8 ovarian): 87200 nM
GI50 (PC-3 prostate): 659 nM
TGI (PC-3 prostate): 12300 nM
GI50 (ACHN renal): 1350 nM
TGI (ACHN renal): 4220 nM
GI50 (T-47D breast): 2140 nM
TGI (T-47D breast): 13800 nM
GI50 (786-0 renal): 371 nM
TGI (786-0 renal): 2110 nM
GI50 (A498 renal): 368 nM
TGI (A498 renal): 2030 nM
GI50 (SF-539 CNS): 221 nM
TGI (SF-539 CNS): 1060 nM
GI50 (U251 CNS): 821 nM
TGI (U251 CNS): 3880 nM
GI50 (NCI-H460 lung): 1160 nM
TGI (NCI-H460 lung): 3020 nM
GI50 (EKVX NSCLC): 1650 nM
TGI (EKVX NSCLC): 15200 nM
GI50 (NCI-H23 lung): 1950 nM
TGI (NCI-H23 lung): 8420 nM
GI50 (MDA-MB-231 breast): 1940 nM
TGI (MDA-MB-231 breast): 5490 nM
GI50 (IGROV1 ovarian): 1950 nM
TGI (IGROV1 ovarian): 7200 nM
GI50 (RXF 393 renal): 65.3 nM
TGI (RXF 393 renal): 328 nM
GI50 (OVCAR-4 ovarian): 2590 nM
TGI (OVCAR-4 ovarian): 16300 nM
GI50 (CCRF-CEM leukemia): 534 nM
TGI (CCRF-CEM leukemia): 4160 nM
GI50 (HS 578T breast): 364 nM
TGI (HS 578T breast): 3700 nM
GI50 (A549 NSCLC): 2730 nM
TGI (A549 NSCLC): 20300 nM
GI50 (SR leukemia): 340 nM
TGI (SR leukemia): 2960 nM
GI50 (HOP-62 NSCLC): 2150 nM
TGI (HOP-62 NSCLC): 13600 nM
GI50 (TK-10 renal): 3760 nM
TGI (TK-10 renal): 15700 nM
GI50 (UO-31 renal): 937 nM
TGI (UO-31 renal): 2790 nM
